# Patent publication US20030162803A1, “Anhydrovinblastine for the treatment of cancer” (priority 1997, published 2003)
# Legend:
# [1] = system: SK0V3 cells; assay: Cytotoxicity assay, SKOV3 (FIG. 8); format: cell-based; settings: 3 day incubation
# Protocol: The IC50s for the SK0V3 and C-4 cells were 4.0 μM and 0.02 μM respectively. Both cell lines were obtained from the ATCC and grown using standard growth techniques and medium as described above. The IC50s were determined through standard cytoxicity assays described above, with each well containing approximately 10^4 cells.
# [2] = Phase I clinical trial, pharmacokinetics (serum, HPLC, 2-compartment model); format: in vivo, human patients; set-up: AUC: unit not given here
# Protocol: AHVB blood serum concentrations were measured at 0, 0.33, 0.67, 1, 1.25, 1.5, 2, 4, 6, 8, 12, 24, 48, and 72 hrs after the start of each infusion. […] The serum extracts were assayed using high pressure liquid chromatography (HPLC) and were fit to a 2-compartment pharmacokinetic model for determination of pharmacokinetic parameters (see Table 5).
# There appears to be no significant change in clearance observed between smaller and larger doses (p>0.2 by linear regression). […] Similarly, AUC appeared to increase linearly with dose (r^2=0.82, p<0.05) (FIG. 12).
compound,measurement,setting,value
"CCC1=C[C@H]2CN(CCc3c([nH]c4ccccc34)[C@@](C(=O)OC)(c3cc4c(cc3OC)N(C)[C@H]3[C@@](O)(C(=O)OC)[C@H](OC(C)=O)[C@]5(CC)C=CCN6CC[C@]43[C@@H]65)C2)C1 [AHVB, 3′,4′-anhydrovinblastine]",IC50,[1],4 µM
same,"pharmacokinetics, dose linearity","[2]; 2.5-30 mg/m^2, 1 hour infusion",linear
same,T1/2 al,"[2]; All Data, N 20, Max",0.393 h
same,T1/2 be,"[2]; All Data, N 20, Max",63.10 h
same,T1/2 al (alpha half-life),"[2]; All Data, N 20, Mean",0.19 h
same,T1/2 be (beta half-life),"[2]; All Data, N 20, Mean",20.8 h
same,T1/2 al,"[2]; All Data, N 20, Median",0.17 h
same,T1/2 be,"[2]; All Data, N 20, Median",17.60 h
same,T1/2 al,"[2]; All Data, N 20, Min",0.07 h
same,T1/2 be,"[2]; All Data, N 20, Min",6.63 h
same,A,"[2]; dose 2.5 mg/m^2, N 1, Value",134.71 ng/mL
same,AUC,"[2]; dose 2.5 mg/m^2, N 1, Value",71.64
same,B,"[2]; dose 2.5 mg/m^2, N 1, Value",5.03 ng/mL
same,Cmax,"[2]; dose 2.5 mg/m^2, N 1, Value",28.23 ng/mL
same,T1/2 al,"[2]; dose 2.5 mg/m^2, N 1, Value",0.12 h
same,T1/2 be,"[2]; dose 2.5 mg/m^2, N 1, Value",6.63 h
same,A,"[2]; dose 5 mg/m^2, N 3, Max",531.52 ng/mL
same,AUC,"[2]; dose 5 mg/m^2, N 3, Max",793.39
same,B,"[2]; dose 5 mg/m^2, N 3, Max",9.73 ng/mL
same,Cmax,"[2]; dose 5 mg/m^2, N 3, Max",62.40 ng/mL
same,T1/2 al,"[2]; dose 5 mg/m^2, N 3, Max",0.17 h
same,T1/2 be,"[2]; dose 5 mg/m^2, N 3, Max",63.13 h
same,A,"[2]; dose 5 mg/m^2, N 3, Mean",281.82 ng/mL
same,AUC,"[2]; dose 5 mg/m^2, N 3, Mean",571.75
same,B,"[2]; dose 5 mg/m^2, N 3, Mean",8.04 ng/mL
same,Cmax,"[2]; dose 5 mg/m^2, N 3, Mean",51.37 ng/mL
same,T1/2 al,"[2]; dose 5 mg/m^2, N 3, Mean",0.14 h
same,T1/2 be,"[2]; dose 5 mg/m^2, N 3, Mean",44.36 h
same,A,"[2]; dose 5 mg/m^2, N 3, Median",178.39 ng/mL
same,AUC,"[2]; dose 5 mg/m^2, N 3, Median",639.67
same,B,"[2]; dose 5 mg/m^2, N 3, Median",8.11 ng/mL
same,Cmax,"[2]; dose 5 mg/m^2, N 3, Median",53.07 ng/mL
same,T1/2 al,"[2]; dose 5 mg/m^2, N 3, Median",0.17 h
same,T1/2 be,"[2]; dose 5 mg/m^2, N 3, Median",42.41 h
same,A,"[2]; dose 5 mg/m^2, N 3, Min",135.55 ng/mL
same,AUC,"[2]; dose 5 mg/m^2, N 3, Min",282.20
same,B,"[2]; dose 5 mg/m^2, N 3, Min",6.27 ng/mL
same,Cmax,"[2]; dose 5 mg/m^2, N 3, Min",38.65 ng/mL
same,T1/2 al,"[2]; dose 5 mg/m^2, N 3, Min",0.07 h
same,T1/2 be,"[2]; dose 5 mg/m^2, N 3, Min",27.54 h
same,A,"[2]; dose 10 mg/m^2, N 1, Value",109.85 ng/mL
same,AUC,"[2]; dose 10 mg/m^2, N 1, Value",247.19
same,B,"[2]; dose 10 mg/m^2, N 1, Value",11.49 ng/mL
same,Cmax,"[2]; dose 10 mg/m^2, N 1, Value",48.57 ng/mL
same,T1/2 al,"[2]; dose 10 mg/m^2, N 1, Value",0.25 h
same,T1/2 be,"[2]; dose 10 mg/m^2, N 1, Value",12.50 h
same,A,"[2]; dose 16.5 mg/m^2, N 5, Max",816.42 ng/mL
same,AUC,"[2]; dose 16.5 mg/m^2, N 5, Max",1791.22
same,B,"[2]; dose 16.5 mg/m^2, N 5, Max",34.16 ng/mL
same,Cmax,"[2]; dose 16.5 mg/m^2, N 5, Max",231.52 ng/mL
same,T1/2 al,"[2]; dose 16.5 mg/m^2, N 5, Max",0.39 h
same,T1/2 be,"[2]; dose 16.5 mg/m^2, N 5, Max",33.52 h
same,A,"[2]; dose 16.5 mg/m^2, N 5, Mean",509.47 ng/mL
same,AUC,"[2]; dose 16.5 mg/m^2, N 5, Mean",824.58
same,B,"[2]; dose 16.5 mg/m^2, N 5, Mean",22.50 ng/mL
same,Cmax,"[2]; dose 16.5 mg/m^2, N 5, Mean",163.03 ng/mL
same,T1/2 al,"[2]; dose 16.5 mg/m^2, N 5, Mean",0.22 h
same,T1/2 be,"[2]; dose 16.5 mg/m^2, N 5, Mean",21.35 h
same,A,"[2]; dose 16.5 mg/m^2, N 5, Median",478.82 ng/mL
same,AUC,"[2]; dose 16.5 mg/m^2, N 5, Median",541.21
same,B,"[2]; dose 16.5 mg/m^2, N 5, Median",21.87 ng/mL
same,Cmax,"[2]; dose 16.5 mg/m^2, N 5, Median",171.48 ng/mL
same,T1/2 al,"[2]; dose 16.5 mg/m^2, N 5, Median",0.20 h
same,T1/2 be,"[2]; dose 16.5 mg/m^2, N 5, Median",21.82 h
same,A,"[2]; dose 16.5 mg/m^2, N 5, Min",263.49 ng/mL
same,AUC,"[2]; dose 16.5 mg/m^2, N 5, Min",511.26
same,B,"[2]; dose 16.5 mg/m^2, N 5, Min",6.64 ng/mL
same,Cmax,"[2]; dose 16.5 mg/m^2, N 5, Min",96.35 ng/mL
same,T1/2 al,"[2]; dose 16.5 mg/m^2, N 5, Min",0.13 h
same,T1/2 be,"[2]; dose 16.5 mg/m^2, N 5, Min",8.21 h
same,A,"[2]; dose 21 mg/m^2, N 3, Max",1197.78 ng/mL
same,AUC,"[2]; dose 21 mg/m^2, N 3, Max",1402.11
same,B,"[2]; dose 21 mg/m^2, N 3, Max",28.54 ng/mL
same,Cmax,"[2]; dose 21 mg/m^2, N 3, Max",340.46 ng/mL
same,T1/2 al,"[2]; dose 21 mg/m^2, N 3, Max",0.39 h
same,T1/2 be,"[2]; dose 21 mg/m^2, N 3, Max",30.50 h
same,A,"[2]; dose 21 mg/m^2, N 3, Mean",774.37 ng/mL
same,AUC,"[2]; dose 21 mg/m^2, N 3, Mean",1094.91
same,B,"[2]; dose 21 mg/m^2, N 3, Mean",25.92 ng/mL
same,Cmax,"[2]; dose 21 mg/m^2, N 3, Mean",257.21 ng/mL
same,T1/2 al,"[2]; dose 21 mg/m^2, N 3, Mean",0.26 h
same,T1/2 be,"[2]; dose 21 mg/m^2, N 3, Mean",22.88 h
same,A,"[2]; dose 21 mg/m^2, N 3, Median",802.43 ng/mL
same,AUC,"[2]; dose 21 mg/m^2, N 3, Median",964.03
same,B,"[2]; dose 21 mg/m^2, N 3, Median",24.72 ng/mL
same,Cmax,"[2]; dose 21 mg/m^2, N 3, Median",252.10 ng/mL
same,T1/2 al,"[2]; dose 21 mg/m^2, N 3, Median",0.20 h
same,T1/2 be,"[2]; dose 21 mg/m^2, N 3, Median",19.15 h
same,A,"[2]; dose 21 mg/m^2, N 3, Min",322.90 ng/mL
same,AUC,"[2]; dose 21 mg/m^2, N 3, Min",918.58
same,B,"[2]; dose 21 mg/m^2, N 3, Min",24.50 ng/mL
same,Cmax,"[2]; dose 21 mg/m^2, N 3, Min",179.07 ng/mL
same,T1/2 al,"[2]; dose 21 mg/m^2, N 3, Min",0.19 h
same,T1/2 be,"[2]; dose 21 mg/m^2, N 3, Min",19.00 h
same,A,"[2]; dose 25 mg/m^2, N 6, Max",1952.78 ng/mL
same,AUC,"[2]; dose 25 mg/m^2, N 6, Max",1202.01
same,B,"[2]; dose 25 mg/m^2, N 6, Max",48.76 ng/mL
same,Cmax,"[2]; dose 25 mg/m^2, N 6, Max",368.79 ng/mL
same,T1/2 al,"[2]; dose 25 mg/m^2, N 6, Max",0.36 h
same,T1/2 be,"[2]; dose 25 mg/m^2, N 6, Max",16.29 h
same,A,"[2]; dose 25 mg/m^2, N 6, Mean",1122.91 ng/mL
same,AUC,"[2]; dose 25 mg/m^2, N 6, Mean",764.83
same,B,"[2]; dose 25 mg/m^2, N 6, Mean",34.51 ng/mL
same,Cmax,"[2]; dose 25 mg/m^2, N 6, Mean",273.43 ng/mL
same,T1/2 al,"[2]; dose 25 mg/m^2, N 6, Mean",0.18 h
same,T1/2 be,"[2]; dose 25 mg/m^2, N 6, Mean",10.68 h
same,A,"[2]; dose 25 mg/m^2, N 6, Median",1062.6 ng/mL
same,AUC,"[2]; dose 25 mg/m^2, N 6, Median",750.85
same,B,"[2]; dose 25 mg/m^2, N 6, Median",35.06 ng/mL
same,Cmax,"[2]; dose 25 mg/m^2, N 6, Median",287.71 ng/mL
same,T1/2 al,"[2]; dose 25 mg/m^2, N 6, Median",0.16 h
same,T1/2 be,"[2]; dose 25 mg/m^2, N 6, Median",10.54 h
same,A,"[2]; dose 25 mg/m^2, N 6, Min",379.79 ng/mL
same,AUC,"[2]; dose 25 mg/m^2, N 6, Min",436.85
same,B,"[2]; dose 25 mg/m^2, N 6, Min",20.78 ng/mL
same,Cmax,"[2]; dose 25 mg/m^2, N 6, Min",108.52 ng/mL
same,T1/2 al,"[2]; dose 25 mg/m^2, N 6, Min",0.11 h
same,T1/2 be,"[2]; dose 25 mg/m^2, N 6, Min",6.73 h
same,A,"[2]; dose 30 mg/m^2, N 1, Value",3559.02 ng/mL
same,AUC,"[2]; dose 30 mg/m^2, N 1, Value",1797.92
same,B,"[2]; dose 30 mg/m^2, N 1, Value",36.71 ng/mL
same,Cmax,"[2]; dose 30 mg/m^2, N 1, Value",571.08 ng/mL
same,T1/2 al,"[2]; dose 30 mg/m^2, N 1, Value",0.10 h
same,T1/2 be,"[2]; dose 30 mg/m^2, N 1, Value",23.83 h
